The source of these data is PMC11001709, “Anti-toxoplasma activity and DNA-binding of copper(II) and zinc(II) coordination compounds with 5-nitroimidazole-based ligands” (Journal of Biological Inorganic Chemistry, 2023).

Data set [1] deals with ct-DNA. Nature of the data set: Circular dichroism of ct-DNA. Format: binding, calf. The conditions noted are these: [DNA]b = 50 µM, [complex]/[DNA] 0-2, 1 h 37 °C. On the procedure: (§1) For the UV–Vis, fluorescence and circular dichroism assays the concentration of ct-DNA was determined on a Varian Cary 100 Scan spectrophotometer from the absorption at 260 nm and the corresponding molar absorptivity of 6600 M^−1 cm^−1 (nucleobase concentration). The stock solutions of the coordination compounds and the free ligands were prepared in cacodylate/NaCl buffer (1 mM cacodylic acid and 20 mM sodium chloride) at pH 7.25. The final samples contained a DMSO concentration of 0.2%.
Circular dichroism (CD) spectra were recorded using a JASCO-815 spectropolarimeter, equipped with xenon-arc lamp of 450 W. The sample compartment was air-purged with N2 before use. For the measurements, a quartz cuvette with an optical path of 5 mm was used. A solution of 25 µM (in base pairs) of ct-DNA in cacodylate/NaCl buffer was incubated for 1 h at 37 °C with increasing amounts of coordination compounds (0–50 µM). The CD spectra were recorded at room temperature.
The interaction of small molecules with DNA can modify these CD signals depending on the type of binding. Intercalative interactions increase the intensity of the signals, as the result of an increase of the stability of the B conformation, whereas groove binding or covalent interactions tend to decrease the intensity of these signals, which are moreover displaced. The CD spectra for both ligands and their copper(II) and zinc(II) complexes were obtained at constant concentration of ct-DNA, increasing the complex concentration up to two equivalents ([complex]/[DNA] ratios of 0, 0.2, 0.4, 1, 2) with respect to the nucleobases concentration ([DNA]b = 50 µM).

Data set [2] concerns ct-DNA. Briefly: Competitive displacement of Hoechst 33258 from DNA (fluorescence). Type of data set: binding, calf. The conditions noted are these: Hoechst 33258 1.9 µM, [DNA]b = 30 µM, compound 0-50 µM, 1 h. Here is the method:
as §1
Emission intensity of the dyes DNA-intercalator ethidium bromide, EB (λexc = 514 nm) and the minor-groove binder Hoechst 33,258 (λexc = 350 nm) was measured on iHR320 HORIBA JOBIN YVON spectrofluorometer. The samples contained 15 µM (in base pairs) of ct-DNA and 75 µM of EB […] in cacodylate/NaCl buffer. The respective dye was incubated for 30 min with ct-DNA to allow its binding to the biomolecule. Subsequently, increasing amounts of coordination compounds (0–50 µM) were added up to a final volume of 2 mL, and the samples were incubated for 1 h at 37 °C. The fluorescence spectra of all samples were recorded at room temperature. The affinity of the compounds for ct-DNA compared to EB was evaluated through the Stern–Volmer quenching constant Ksv, from Eq. 3:3 I0/I=1+Ksvcompound where I0 and I are the emission intensities in absence and the presence of the compound, respectively.
Competitive binding assays were carried out with Hoechst 33,258. This dye binds to B-DNA, especially those with an AT-rich sequence giving a fluorescent signal at 458 nm when excited at 350 nm. As for to the EB assays, DNA (30 µM) was incubated for 30 min with Hoechst 33,258 (1.9 µM) and increasing amounts of the coordination compounds were subsequently added. In all cases, fluorescence quenching was observed (Fig. 9). As previously, the Ksv constants were determined (Fig. 9c and Table 4). The copper(II) compounds show Ksv values in the […] range (Table 4), indicating a groove binding behavior. For the zinc(II) compounds, the Ksv values are two orders of magnitude lower indicating weaker interactions, must likely of electrostatic nature.

Data set [3] is described as follows: Distribution coefficient LogD7.4, shake-flask 1-octanol/MOPS buffer. Type of data set: physicochemical. The conditions noted are these: octanol/water (MOPS buffer 10^–2 M), 25 °C, 3 h. On the procedure:
Solutions between 100 and 10 µM of the free ligands (cenz and onz) and the coordination compounds 3–10 were prepared in a MOPS buffer pH 7.4 as the aqueous phase and in 1-octanol as the organic phase. The absorption at 320 nm and 310 nm was determined for the aqueous and organic phase respectively by electronic spectroscopy (UV–Vis). Through a linear regression (concentration vs. absorption) the molar extinction coefficient of each compound in both phases was determined (Table 3). The lipophilicity was calculated in the 1-octanol/water system from the shake flask method using Eq. 1 [39]:1 […] where, Co is the final concentration in the organic phase and Cw is the final concentration in the aqueous phase (MOPS buffer at 10^–2 M pH 7.4). Both phases were presaturated with 50 µM solutions of the free ligands or 500 µM of each coordination compound and their UV spectrum was recorded. Both phases were combined and kept stirring for 3 h at 25 °C and in the absence of light. Subsequently, the mixture was centrifuged at 400g and the concentration in both phases was determined by UV–Vis spectroscopy using the Beer-Lambert law. The assays were performed in triplicate.
The T gondii parasite is an apicomplex organism; it requires a host cell to live, so it is important that the drugs used against the parasite have easy access to the cell. The lipophilicity of a compound is an important physicochemical property to determine its ability to permeate the biological membrane through passive diffusion; which usually is measured from the distribution coefficient logD7.4 = log(Co/Cw), in n-octanol/water. The shake-flask method was used to determine the LogD7.4 values from the molar extinction coefficients of the coordination compounds and the ligands in the two solvents (Table 3).

Turning to `Cc1ncc([N+](=O)[O-])n1CCCl.Cc1ncc([N+](=O)[O-])n1CCCl.[Br][Cu][Br]` [[Cu(cenz)2Br2]], in the data set with ct-DNA [1], the “effect on CD spectrum of ct-DNA (bands at 275 and 245 nm)” value (from here on “effect on CD spectrum of ct-DNA”) was “decrease of the intensity of the positive and negative bands”. In addition, the “Hoechst 33258 Ksv” value in the data set on ct-DNA [2] worked out at 2.1e+06 M⁻¹. Also, the LogD7.4 in data set [3] is 0.62.

Regarding `Cc1ncc([N+](=O)[O-])n1CCCl.Cc1ncc([N+](=O)[O-])n1CCCl.[Cl][Cu][Cl]` [[Cu(cenz)2Cl2]], the “effect on CD spectrum of ct-DNA” value with ct-DNA [1] is “decrease of the intensity of the positive and negative bands”. Moreover, in the data set on ct-DNA [2], the “Hoechst 33258 Ksv” value amounted to 1.6e+06 M⁻¹. The LogD7.4 in data set [3] stood at 0.69.

In the case of `Cc1n(CC(O)CCl)c([N+](=O)[O-])c[n+]1[Cu-2]([Br])([Br])[n+]1cc([N+](=O)[O-])n(CC(O)CCl)c1C` (stereo not drawn) [[Cu(onz)2Br2]], in the data set on ct-DNA [1], the “effect on CD spectrum of ct-DNA” value is “decrease of the intensity of the positive and negative bands”. Moreover, the “Hoechst 33258 Ksv” value in the data set with ct-DNA [2] was determined as 2.5e+06 M⁻¹. The LogD7.4 in data set [3] came to 0.56.

`Cc1ncc([N+](=O)[O-])n1CC(O)CCl.Cc1ncc([N+](=O)[O-])n1CC(O)CCl.[Cl-].[Cl-].[Cu+2]` (stereo not drawn) [[Cu(onz)2Cl2]]: the “effect on CD spectrum of ct-DNA” value in the data set on ct-DNA [1] is “decrease of the intensity of the positive and negative bands”. Further, in the data set with ct-DNA [2], the “Hoechst 33258 Ksv” value is 1.2e+06 M⁻¹. For the same compound, in data set [3], the LogD7.4 came out at 0.61.

Regarding `Cc1ncc([N+](=O)[O-])n1CCCl.Cc1ncc([N+](=O)[O-])n1CCCl.[Br][Zn][Br]` [[Zn(cenz)2Br2]], the “effect on CD spectrum of ct-DNA” value in the data set with ct-DNA [1] is given as “spectra changes are minor”. Moreover, in the data set on ct-DNA [2], the “Hoechst 33258 Ksv” value was 120000 M⁻¹. The compound also yielded a LogD7.4 in data set [3] of 0.82.

As for `Cc1ncc([N+](=O)[O-])n1CC(O)CCl.Cc1ncc([N+](=O)[O-])n1CC(O)CCl.[Cl][Zn][Cl]` (stereo not drawn) [[Zn(onz)2Cl2]], in the data set with ct-DNA [1], the “effect on CD spectrum of ct-DNA” value is listed as “spectra changes are minor”. For the same compound, the “Hoechst 33258 Ksv” value in the data set on ct-DNA [2] was determined as 38000 M⁻¹. Besides, in data set [3], the LogD7.4 is given as 0.90.
